This is an account of results in patent US4791118A, “Quinolonecarboxylic acid derivatives and their preparation” (Kyorin Pharmaceutical Co., Ltd., priority 1985, dated 1988).

In one assay the test system is K. pneumoniae 1-220S. Briefly: microbe, parasite or virus in culture. The settings on record: Klebsiella pneumoniae, 1220S.
The next assay concerns B. vulgatus KYA 29327. Briefly: MIC, anaerobic bacteria. Type of assay: cell-based. The conditions noted are these: Phocaeicola vulgatus, KYA29327, Gram -, 10^6 cells/ml. An excerpt:
(§1) | Organism (10^6 cells/ml)

A further assay relates to B. fragilis 0558. Briefly: MIC, anaerobic bacteria. Type of assay: cell-based. The settings on record: Bacteroides fragilis, Gram -, 10^6 cells/ml.
Source text: as §1

The subject of assay [1] is Veillonella parvula KYA 10790. Briefly: MIC, anaerobic bacteria. In kind it is cell-based. The settings on record: KYA10790, Gram -, 10^6 cells/ml.
Source text: as §1

In assay [2] the test system is Bacteroides fragilis GM 7000. Briefly: MIC, anaerobic bacteria. Type of assay: cell-based. The conditions noted are these: GM7000, Gram -, 10^6 cells/ml.
Source text: as §1

For assay [3], the system named is Fusobacterium mortiferum 4249. Briefly: MIC, anaerobic bacteria. The settings on record: Gram -, 10^6 cells/ml. In kind it is cell-based.
Source text: as §1

For a further assay, the system named is B. distasonis 8503. Put plainly: MIC, anaerobic bacteria. Type of assay: cell-based. The settings on record: Parabacteroides distasonis, Gram -, 10^6 cells/ml.
Source text: as §1

Another assay relates to B. fragilis 25285. Briefly: MIC, anaerobic bacteria. Type of assay: cell-based. The conditions noted are these: Bacteroides fragilis, Gram -, 10^6 cells/ml.
Source text: as §1

The next assay has as its system Pst. micros UPI 5464-1. Briefly: MIC, anaerobic bacteria. In kind it is cell-based. The settings on record: Parvimonas micra, UPI54641, Gram +, 10^6 cells/ml.
Source text: as §1

Assay [4] relates to Pseudomonas aeruginosa V-1. Briefly: MIC, aerobic bacteria. The settings on record: V1.
The test system of assay [5] is Salmonella enteritidis IID 604. Put plainly: microbe, parasite or virus in culture. The settings on record: Salmonella enterica.
In assay [6] the test system is Eubacterium limosum KYA 8486. Put plainly: MIC, anaerobic bacteria. The conditions noted are these: KYA8486.
The next assay concerns S. epidermidis IID 866. Briefly: MIC, aerobic bacteria. Type of assay: cell-based. The conditions noted are these: Staphylococcus epidermidis, IID866, Gram +, 10^6 cells/ml.
Source text: as §1

Assay [7] deals with S. aureus IID 670 (Terajima). Put plainly: MIC, aerobic bacteria. Type of assay: cell-based. The settings on record: Staphylococcus aureus, IID670, Gram +, 10^6 cells/ml.
Source text: as §1

In assay [8] the test system is Escherichia coli NIHJ JC-2. Briefly: MIC, aerobic bacteria. In kind it is cell-based. The settings on record: NIHJJC2, Gram -, 10^6 cells/ml.
Source text: as §1

A further assay deals with E. coli ATCC 10536. Put plainly: MIC, aerobic bacteria. In kind it is cell-based. The settings on record: Escherichia coli, ATCC10536, Gram -, 10^6 cells/ml.
Source text: as §1

Assay [9] concerns Serratia marcescens IID 618. Briefly: MIC, aerobic bacteria. The settings on record: IID618, Gram -, 10^6 cells/ml. In kind it is cell-based.
Source text: as §1

Assay [10] relates to Citrobacter freundii IID 976. Briefly: MIC, aerobic bacteria. In kind it is cell-based. The settings on record: IID976, Gram -, 10^6 cells/ml.
Source text: as §1

Assay [11] deals with Acinetobacter anitratus IID 876. Briefly: MIC, aerobic bacteria. In kind it is cell-based. The conditions noted are these: Acinetobacter calcoaceticus, IID876, Gram -, 10^6 cells/ml.
Source text: as §1

Assay [12] has as its system Morganella morganii IID 602. Briefly: MIC, aerobic bacteria. The settings on record: IID602, Gram -, 10^6 cells/ml. In kind it is cell-based.
Source text: as §1

In assay [13] the test system is Proteus vulgaris IFO 3167. Put plainly: MIC, aerobic bacteria. In kind it is cell-based. The settings on record: IFO3167, Gram -, 10^6 cells/ml.
Source text: as §1

Assay [14] concerns Klebsiella pneumoniae KY(GN)6445. Put plainly: MIC, aerobic bacteria. In kind it is cell-based. The conditions noted are these: Gram -, 10^6 cells/ml.
Source text: as §1

Another assay concerns P. mirabilis IID 992. Put plainly: MIC, aerobic bacteria. In kind it is cell-based. The settings on record: Proteus mirabilis, IID992, Gram -, 10^6 cells/ml.
Source text: as §1

Assay [15] deals with Staphylococcus aureus 209 P. Put plainly: microbe, parasite or virus in culture.
For assay [16], the system named is Alcaligenes faecalis 0114002. Briefly: MIC, aerobic bacteria.
The test system of assay [17] is Bacillus subtilis PCI 219. Briefly: microbe, parasite or virus in culture. The settings on record: PCI219.
The next assay has as its system C. ramosum. Put plainly: MIC, anaerobic bacteria. The settings on record: Thomasclavelia ramosa.
The test system of assay [18] is Yersinia enterocolitica IID 981. Briefly: microbe, parasite or virus in culture. The settings on record: IID981.
In the next assay the test system is S. aureus Smith. Put plainly: microbe, parasite or virus in culture. The conditions noted are these: Staphylococcus aureus.
The next assay deals with gram-positive bacteria. The settings on record: cited from earlier work.
In the next assay the test system is gram-negative bacteria. The conditions noted are these: than that of the prior compounds (e.g. norfloxacin, ciprofloxacin); cited from earlier work.

Values after ≈ are worked out from the molar mass of the structure shown. Read-outs that look alike come from different tables or passages of the source.

For the compound `O=C(O)c1cn(C2CC2)c2cc(N3CCNCC3)c(F)cc2c1=O` [CPFX, ciprofloxacin, reference compound], the MIC against K. pneumoniae 1-220S came to 0.05 µg/mL (≈ 0.151 µM); against B. vulgatus KYA 29327 it was 25 µg/mL (≈ 75.4 µM); against B. fragilis 0558, 3.13 µg/mL (≈ 9.45 µM); in assay [1], 0.2 µg/mL (≈ 0.604 µM); in assay [2], 6.25 µg/mL (≈ 18.9 µM); in assay [3] it was 3.13 µg/mL (≈ 9.45 µM). The MIC with B. distasonis 8503 was found to be 6.25 µg/mL (≈ 18.9 µM); against B. fragilis 25285, 6.25 µg/mL (≈ 18.9 µM); against Pst. micros UPI 5464-1, 0.2 µg/mL (≈ 0.604 µM); in [4], 0.05 µg/mL (≈ 0.151 µM); in [5], 0.025 µg/mL (≈ 0.0754 µM); in assay [6], 3.13 µg/mL (≈ 9.45 µM). Also, the MIC in the assay with S. epidermidis IID 866 was 0.1 µg/mL (≈ 0.302 µM); in [7], 0.1 µg/mL (≈ 0.302 µM); in assay [8], no more than 0.0063 µg/mL; in the assay on E. coli ATCC 10536, 0.025 µg/mL (≈ 0.0754 µM); in assay [9], 0.05 µg/mL (≈ 0.151 µM); in assay [10], 0.025 µg/mL (≈ 0.0754 µM). In addition, the MIC in assay [11] was 0.2 µg/mL (≈ 0.604 µM); in assay [12], 0.05 µg/mL (≈ 0.151 µM); in assay [13], 0.025 µg/mL (≈ 0.0754 µM); in assay [14] it was 0.025 µg/mL (≈ 0.0754 µM); in the assay on P. mirabilis IID 992 it was 0.025 µg/mL (≈ 0.0754 µM); in assay [15], 0.2 µg/mL (≈ 0.604 µM). In addition, the MIC came to 0.2 µg/mL (≈ 0.604 µM) in [16]; 0.05 µg/mL (≈ 0.151 µM) in [17]; 6.25 µg/mL (≈ 18.9 µM) with C. ramosum; 0.05 µg/mL (≈ 0.151 µM) in [18]; 0.2 µg/mL (≈ 0.604 µM) with S. aureus Smith.
On to `CCn1cc(C(=O)O)c(=O)c2cc(F)c(N3CCNCC3)cc21` [norfloxacin], for which the “activity against gram-positive bacteria” value in the assay with gram-positive bacteria (compared with gram-negative bacteria) is reported as “fairly less than that against gram-negative bacteria”.
For `CCNCC1CCN(c2c(F)cc3c(=O)c(C(=O)O)cn(CC)c3c2F)C1` (centres unmarked) [CI-934], the “activity against gram-negative bacteria” value in the assay with gram-negative bacteria was “weaker activity”. Also, the “activity against gram-positive bacteria” value with gram-positive bacteria (prior drugs, e.g. CI-934) is “relatively strong activity”.
